# Measured values published in patent US8835632B2, “Methods to increase the photostability of dyes” (The University of North Carolina at Chapel Hill, priority 2007, dated 2014).
# Legend:
# Assay type in all cases: physicochemical
# [1] = Photobleaching under constant illumination from a halogen tungsten lamp filtered through glass
# Description: The photostability of dyes can be important for applications in living cells. The mechanism of photobleaching for merocyanines of varying structure has been examined See Toutchkine et al., J. Am. Chem. Soc. 125:4132-4145 (2003). The photostability of the presently disclosed dyes was characterized by exposing them to constant illumination from a halogen tungsten lamp filtered through glass. This broad spectrum light source provided essentially equal intensity throughout the spectral range where the dyes absorb and where they would be irradiated in vivo (about 600 nm to about 650 nm).
# [2] = Relative rate of reaction with chemically generated singlet oxygen in DMSO; conditions: 2.5 mM, 1O2 from 1,4-dimethylnaphtalene-1,4-endoperoxide
# Protocol: The bleaching rates for the dyes differed by two orders of magnitude. The relative rate constants kr (rel) for product formation during reaction with singlet oxygen were measured by comparing the percent conversions for dyes dissolved in DMSO containing a fixed amount of ^1O2 (2.5 mM solutions; ^1O2 generated by decomposition of 1,4-dimethylnaphtalene-1,4-endoperoxide). The rates were generally higher for dyes with a polar ground state (1a, 2a, 2b, 2d) than for the dyes with their ground state at the “cyanine limit” (3, 4). […] Olefins without allylic hydrogens react with singlet oxygen to form dioxetanes. Dioxetanes are unstable and decompose, to form two carbonyl compounds.
# [3] = Absorption and fluorescence spectra, extinction coefficient, fluorescence quantum yield
# Protocol: Absorption spectra were recorded on a Hewlett-Packard 8453 diode array UV-Vis spectrophotometer (Agilent Technologies, Inc., Santa Clara, Calif.), and fluorescence measurements were taken on a SPEX® Fluorolog 2 spectrofluorometer (HORIBA Jobin Yvon, Inc., Edison, N.J.). Melting points are not corrected. NMR spectra were obtained on a Varian Mercury 300 MHz (Varian, Inc., Palo Alto, Calif.) or on a Bruker 300 MHz DRX 300 spectrometer (Bruker Biospin Corp., Billerica, Mass.). Mass spectra were obtained on a Hewlett-Packard 1100 high-performance liquid chromatograph equipped with an 1100 mass selective detector (MS-ESI) (Agilent Technologies, Inc.).
# With decreasing solvent polarity, the absorption maximum of dyes 1a-b, 2a-d shifted to longer wavelengths, and the intensity of the transition increased (Table 10, FIG. 11).
# The SCRF/VSCRF predicted emission energies and the solute dipole moments before and after the vertical emission process are given in Table 16. The dipole moments of AI-BA(4) and AI-SO(4) are further decreased on the S1 surface after geometry relaxation (in MeOH solution), and then increased during the S1→S0 transition. This observation is consistent with the blue shifts of the emission bands of AI-BA(4) and AI-SO(4) with increasing solvent polarity from C6H6 to MeOH. By contrast, the dipole moment of I-SO further decreases after S1 state geometry relaxation, and then decreases during the vertical emission process. This observation also is in agreement with the red shift of the I-SO emission band with increasing solvent polarity from C6H6 to MeOH. Similarly to the absorption case, a negligible red shift (ΔEem=0.017 eV) was predicted for the emission band of I-TBA with increasing solvent polarity. A small red shift from C6H6 to DMF (with ΔEem=0.020 eV, or Δλmax=6 nm) is observed. The nearly equal emission energy observed in C6H6 and MeOH can again result in the explicit interactions between the solute and solvent molecules.
# [4] = MeOH, with respect to standard I-TBA in MeOH
structure (smiles),measurement,setting,value
CC1(C)c2ccccc2-[n+]2ccc(/C=C/C3=C([O-])c4ccccc4S3(=O)=O)cc21 [AI-SO(2)],kph * 10^6 (absolute rate of photobleaching),[1]; MeOH,0.7 s^−1
same,kph(rel) (relative rate of photobleaching),[1]; [4],2.1
same,kr(rel) (relative rate constants for product formation during reaction with singlet oxygen produced chemically),[2],20.3
same,Observed absorption (ε),"[3]; Table 10, BuOH",(120000)
same,Observed absorption λmax,"[3]; Table 10, BuOH",554 nm
same,Observed absorption (ε),"[3]; Table 10, C6H6",(235000)
same,Observed absorption λmax,"[3]; Table 10, C6H6",570 nm
same,Observed absorption (ε),"[3]; Table 10, CH2Cl2",(218000)
same,Observed absorption λmax,"[3]; Table 10, CH2Cl2",561 nm
same,Observed absorption (ε),"[3]; Table 10, CH3CN",(149000)
same,Observed absorption λmax,"[3]; Table 10, CH3CN",549 nm
same,Observed absorption (ε),"[3]; Table 10, DMF",(157000)
same,Observed absorption λmax,"[3]; Table 10, DMF",556 nm
same,Observed absorption (ε),"[3]; Table 10, DMSO",(126000)
same,Observed absorption λmax,"[3]; Table 10, DMSO",555 nm
same,Observed absorption (ε),"[3]; Table 10, EtOH",(111000)
same,Observed absorption λmax,"[3]; Table 10, EtOH",549 nm
same,Observed absorption (ε),"[3]; Table 10, MeOH",(92000)
same,Observed absorption λmax,"[3]; Table 10, MeOH",542 nm
same,Observed absorption (ε),"[3]; Table 10, OcOH",(150000)
same,Observed absorption λmax,"[3]; Table 10, OcOH",559 nm
same,Observed absorption (ε),"[3]; Table 10, i-PrOH",(132000)
same,Observed absorption λmax,"[3]; Table 10, i-PrOH",553 nm
same,Observed emission (Φ),"[3]; Table 15, BuOH",0.16
same,Observed emission λmax,"[3]; Table 15, BuOH",567 nm
same,Observed emission (Φ),"[3]; Table 15, C6H6",0.02
same,Observed emission λmax,"[3]; Table 15, C6H6",577 nm
same,Observed emission (Φ),"[3]; Table 15, CH2Cl2",0.06
same,Observed emission λmax,"[3]; Table 15, CH2Cl2",571 nm
same,Observed emission (Φ),"[3]; Table 15, CH3CN",0.06
same,Observed emission λmax,"[3]; Table 15, CH3CN",561 nm
same,Observed emission (Φ),"[3]; Table 15, DMF",0.16
same,Observed emission λmax,"[3]; Table 15, DMF",567 nm
same,Observed emission (Φ),"[3]; Table 15, DMSO",0.24
same,Observed emission λmax,"[3]; Table 15, DMSO",567 nm
same,Observed emission (Φ),"[3]; Table 15, EtOH",0.09
same,Observed emission λmax,"[3]; Table 15, EtOH",563 nm
same,Observed emission (Φ),"[3]; Table 15, MeOH",0.05
same,Observed emission λmax,"[3]; Table 15, MeOH",561 nm
same,Observed emission (Φ),"[3]; Table 15, OcOH",0.21
same,Observed emission λmax,"[3]; Table 15, OcOH",569 nm
same,Observed emission (Φ),"[3]; Table 15, i-PrOH",0.13
same,Observed emission λmax,"[3]; Table 15, i-PrOH",565 nm
CC1(C)c2ccccc2-[n+]2ccc(/C=C/C=C/C3=C(O)c4ccccc4S3(=O)=O)cc21 [AI-SO],kph * 10^6 (absolute rate of photobleaching),[1]; C6H6,128 s^−1
same,kph(rel) (relative rate of photobleaching),"[1]; C6H6, with respect to standard I-SO in C6H6",115
same,kph * 10^6 (absolute rate of photobleaching),[1]; MeOH,89 s^−1
same,kph(rel) (relative rate of photobleaching),[1]; [4],261
same,kr(rel) (relative rate constants for product formation during reaction with singlet oxygen produced chemically),[2],59.2
same,Absorbance λmax,[3]; Butanol (BuOH),650 nm
same,Emission λmax,[3]; Butanol (BuOH),675 nm
same,Extinction coefficient ε,[3]; Butanol (BuOH),118000
same,Fluorescence quantum yield Φ,[3]; Butanol (BuOH),0.92
same,Absorption energy Eabs Exp,[3]; C6H6,1.826 eV
same,Emission energy Eem Exp,[3]; C6H6,1.794 eV
same,Absorption energy Eabs Exp,[3]; MeOH,2.120 eV
same,Emission energy Eem Exp,[3]; MeOH,1.865 eV
same,Absorbance λmax,[3]; Methanol (MeOH),610 nm
same,Emission λmax,[3]; Methanol (MeOH),654 nm
same,Extinction coefficient ε,[3]; Methanol (MeOH),65000
same,Fluorescence quantum yield Φ,[3]; Methanol (MeOH),0.54
same,Observed absorption (ε),"[3]; Table 10, BuOH",(118000)
same,Observed absorption λmax,"[3]; Table 10, BuOH",650 nm
same,Observed absorption (ε),"[3]; Table 10, C6H6",(240000)
same,Observed absorption λmax,"[3]; Table 10, C6H6",679 nm
same,Observed absorption (ε),"[3]; Table 10, CH2Cl2",(278000)
same,Observed absorption λmax,"[3]; Table 10, CH2Cl2",667 nm
same,Observed absorption (ε),"[3]; Table 10, CH3CN",(142000)
same,Observed absorption λmax,"[3]; Table 10, CH3CN",642 nm
same,Observed absorption (ε),"[3]; Table 10, DMF",(154000)
same,Observed absorption λmax,"[3]; Table 10, DMF",651 nm
same,Observed absorption (ε),"[3]; Table 10, DMSO",(118000)
same,Observed absorption λmax,"[3]; Table 10, DMSO",644 nm
same,Observed absorption (ε),"[3]; Table 10, EtOH",(83000)
same,Observed absorption λmax,"[3]; Table 10, EtOH",636 nm
same,Observed absorption (ε),"[3]; Table 10, MeOH",(65000)
same,Observed absorption λmax,"[3]; Table 10, MeOH",610 nm
same,Observed absorption (ε),"[3]; Table 10, OcOH",(150000)
same,Observed absorption λmax,"[3]; Table 10, OcOH",660 nm
same,Observed absorption (ε),"[3]; Table 10, i-PrOH",(122000)
same,Observed absorption λmax,"[3]; Table 10, i-PrOH",648 nm
same,Absorption Exp wavelength,"[3]; Table 12, C6H6",679 nm
same,Absorption Exp wavelength,"[3]; Table 12, MeOH",585 nm
same,Observed emission (Φ),"[3]; Table 15, BuOH",0.92
same,Observed emission λmax,"[3]; Table 15, BuOH",675 nm
same,Observed emission (Φ),"[3]; Table 15, C6H6",0.19
same,Observed emission λmax,"[3]; Table 15, C6H6",691 nm
same,Observed emission (Φ),"[3]; Table 15, CH2Cl2",0.54
same,Observed emission λmax,"[3]; Table 15, CH2Cl2",681 nm
same,Observed emission (Φ),"[3]; Table 15, CH3CN",0.75
same,Observed emission λmax,"[3]; Table 15, CH3CN",667 nm
same,Observed emission λmax,"[3]; Table 15, DMF",673 nm
same,Observed emission λmax,"[3]; Table 15, DMSO",673 nm
same,Observed emission (Φ),"[3]; Table 15, EtOH",0.82
same,Observed emission λmax,"[3]; Table 15, EtOH",671 nm
same,Observed emission (Φ),"[3]; Table 15, MeOH",0.54
same,Observed emission λmax,"[3]; Table 15, MeOH",665 nm
same,Observed emission (Φ),"[3]; Table 15, OcOH",0.88
same,Observed emission λmax,"[3]; Table 15, OcOH",679 nm
same,Observed emission (Φ),"[3]; Table 15, i-PrOH",0.96
same,Observed emission λmax,"[3]; Table 15, i-PrOH",673 nm
